Test results taken from the supplement of paper PMC10307832.

How the values were obtained:
Assay in all cases: relative viability (nuclei count vs DMSO), 5 days (fraction); higher = more cells survive
[1] = tested on: NCI-H2085
Method in brief: (§1)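 Lung cancer cell lines were pin-tool dosed in 1536-well plates on the day after seeding, with either a lone drug or a fixed anchor-drug dose plus five library-drug doses (not always all listed) in √10 steps. Nuclei were counted on 4× images after 5 days. Relative viability is the ratio of treated-well to vehicle-well nuclei counts, with each value a median of duplicate plates.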

[2] = tested on: HCC-78
Method in brief: as §1

[3] = tested on: HCC-15
Method in brief: as §1

[4] = tested on: NCI-H2347
Method in brief: as §1

[5] = tested on: NCI-H358
Method in brief: as §1

[6] = tested on: NCI-H1993
Method in brief: as §1

[7] = tested on: NCI-H650
Method in brief: as §1

[8] = tested on: HARA
Method in brief: as §1

[9] = tested on: NCI-H460
Method in brief: as §1

[10] = tested on: ABC-1
Method in brief: as §1

[11] = tested on: NCI-H838
Method in brief: as §1

[12] = tested on: NCI-H2009
Method in brief: as §1

[13] = tested on: SW 1573
Method in brief: as §1

[14] = tested on: NCI-H1915
Method in brief: as §1

[15] = tested on: LU99A
Method in brief: as §1

[16] = tested on: LC-2-ad
Method in brief: as §1

[17] = tested on: NCI-H2126
Method in brief: as §1

[18] = tested on: NCI-H1651
Method in brief: as §1

[19] = tested on: UMC-11
Method in brief: as §1

[20] = tested on: EPLC-272H
Method in brief: as §1

[21] = tested on: COR-L23
Method in brief: as §1

[22] = tested on: PC-14
Method in brief: as §1

`COc1cc(N2CCC(C(N)=O)CC2)ccc1Nc1nc(N)c(Cl)c(Nc2ccccc2S(=O)(=O)C(C)C)n1` [HG-5-88-01] + C[C@@H](Oc1cc(-c2cnn(C3CCNCC3)c2)cnc1N)c1c(Cl)ccc(F)c1Cl [Crizotinib] (partner 1 µM) was tested. Which relative viability ([1]; first compound 0.04 µM) did it give?
Its relative viability is 0.734.

What about the relative viability ([1]; first compound 0.1265 µM) of the same compound?
The relative viability was 0.856.

And the relative viability ([1]; first compound 0.4 µM)?
Its relative viability is 0.873.

And the relative viability ([1]; first compound 1.265 µM)?
Its relative viability is 0.694.

What about the relative viability ([1]; first compound 4 µM) of the same compound?
The relative viability was 0.63.

And the relative viability ([2]; first compound 0.04 µM)?
The relative viability was 0.37.

And the relative viability ([2]; first compound 0.1265 µM)?
The relative viability was 0.319.

What about the relative viability ([2]; first compound 0.4 µM) of the same compound?
The relative viability was 0.31.

What about the relative viability ([2]; first compound 1.265 µM) of the same compound?
The relative viability was 0.185.

And the relative viability ([2]; first compound 4 µM)?
Its relative viability is 0.275.

And the relative viability ([3]; first compound 0.04 µM)?
Its relative viability is 0.898.

And the relative viability ([3]; first compound 0.1265 µM)?
Its relative viability is 0.775.

And the relative viability ([3]; first compound 0.4 µM)?
The relative viability was 0.779.

What about the relative viability ([3]; first compound 1.265 µM) of the same compound?
Its relative viability is 0.801.

What about the relative viability ([3]; first compound 4 µM) of the same compound?
The relative viability was 0.77.

And the relative viability ([4]; first compound 0.04 µM)?
The relative viability was 0.779.

And the relative viability ([4]; first compound 0.1265 µM)?
The relative viability was 0.81.

What about the relative viability ([4]; first compound 0.4 µM) of the same compound?
Its relative viability is 0.834.

And the relative viability ([4]; first compound 1.265 µM)?
The relative viability was 0.634.

What about the relative viability ([4]; first compound 4 µM) of the same compound?
Its relative viability is 0.744.

What about the relative viability ([5]; first compound 0.04 µM) of the same compound?
Its relative viability is 0.526.

What about the relative viability ([5]; first compound 0.1265 µM) of the same compound?
The relative viability was 0.461.

And the relative viability ([5]; first compound 0.4 µM)?
Its relative viability is 0.529.

And the relative viability ([5]; first compound 1.265 µM)?
The relative viability was 0.318.

And the relative viability ([5]; first compound 4 µM)?
Its relative viability is 0.235.

What about the relative viability ([6]; first compound 0.04 µM) of the same compound?
The relative viability was 0.988.

What about the relative viability ([6]; first compound 0.1265 µM) of the same compound?
The relative viability was 0.773.

What about the relative viability ([6]; first compound 0.4 µM) of the same compound?
Its relative viability is 0.892.

And the relative viability ([6]; first compound 1.265 µM)?
The relative viability was 0.615.

What about the relative viability ([6]; first compound 4 µM) of the same compound?
The relative viability was 0.753.

What about the relative viability ([7]; first compound 0.04 µM) of the same compound?
The relative viability was 0.812.

And the relative viability ([7]; first compound 0.1265 µM)?
Its relative viability is 0.739.

And the relative viability ([7]; first compound 0.4 µM)?
The relative viability was 0.579.

What about the relative viability ([7]; first compound 1.265 µM) of the same compound?
Its relative viability is 0.519.

And the relative viability ([7]; first compound 4 µM)?
The relative viability was 0.398.

What about the relative viability ([8]; first compound 0.04 µM) of the same compound?
The relative viability was 1.09.

And the relative viability ([8]; first compound 0.1265 µM)?
The relative viability was 0.891.

And the relative viability ([8]; first compound 0.4 µM)?
Its relative viability is 1.08.

What about the relative viability ([8]; first compound 1.265 µM) of the same compound?
The relative viability was 1.08.

What about the relative viability ([8]; first compound 4 µM) of the same compound?
Its relative viability is 0.695.

And the relative viability ([9]; first compound 0.04 µM)?
The relative viability was 0.83.

And the relative viability ([9]; first compound 0.1265 µM)?
The relative viability was 1.06.

What about the relative viability ([9]; first compound 0.4 µM) of the same compound?
Its relative viability is 0.851.

What about the relative viability ([9]; first compound 1.265 µM) of the same compound?
The relative viability was 0.843.

What about the relative viability ([9]; first compound 4 µM) of the same compound?
The relative viability was 0.0524.

And the relative viability ([10]; first compound 0.04 µM)?
Its relative viability is 1.15.

And the relative viability ([10]; first compound 0.1265 µM)?
Its relative viability is 0.939.

What about the relative viability ([10]; first compound 0.4 µM) of the same compound?
Its relative viability is 0.813.

What about the relative viability ([10]; first compound 1.265 µM) of the same compound?
The relative viability was 0.606.

What about the relative viability ([10]; first compound 4 µM) of the same compound?
Its relative viability is 0.43.

And the relative viability ([11]; first compound 0.04 µM)?
The relative viability was 0.799.

What about the relative viability ([11]; first compound 0.1265 µM) of the same compound?
The relative viability was 0.868.

And the relative viability ([11]; first compound 0.4 µM)?
The relative viability was 0.641.

What about the relative viability ([11]; first compound 1.265 µM) of the same compound?
The relative viability was 0.571.

What about the relative viability ([11]; first compound 4 µM) of the same compound?
Its relative viability is 0.596.

And the relative viability ([12]; first compound 0.04 µM)?
The relative viability was 1.05.

What about the relative viability ([12]; first compound 0.1265 µM) of the same compound?
The relative viability was 1.03.

What about the relative viability ([12]; first compound 0.4 µM) of the same compound?
The relative viability was 0.938.

And the relative viability ([12]; first compound 1.265 µM)?
The relative viability was 0.962.

What about the relative viability ([12]; first compound 4 µM) of the same compound?
Its relative viability is 0.853.

And the relative viability ([13]; first compound 0.04 µM)?
The relative viability was 0.806.

What about the relative viability ([13]; first compound 0.1265 µM) of the same compound?
The relative viability was 0.848.

And the relative viability ([13]; first compound 0.4 µM)?
The relative viability was 0.907.

What about the relative viability ([13]; first compound 1.265 µM) of the same compound?
Its relative viability is 0.568.

And the relative viability ([13]; first compound 4 µM)?
Its relative viability is 0.475.

What about the relative viability ([14]; first compound 0.04 µM) of the same compound?
The relative viability was 0.926.

What about the relative viability ([14]; first compound 0.1265 µM) of the same compound?
The relative viability was 0.885.

And the relative viability ([14]; first compound 0.4 µM)?
The relative viability was 0.906.

And the relative viability ([14]; first compound 1.265 µM)?
Its relative viability is 0.928.

What about the relative viability ([14]; first compound 4 µM) of the same compound?
Its relative viability is 0.808.

What about the relative viability ([15]; first compound 0.04 µM) of the same compound?
Its relative viability is 0.554.

And the relative viability ([15]; first compound 0.1265 µM)?
The relative viability was 0.615.

And the relative viability ([15]; first compound 0.4 µM)?
Its relative viability is 0.511.

And the relative viability ([15]; first compound 1.265 µM)?
The relative viability was 0.491.

What about the relative viability ([15]; first compound 4 µM) of the same compound?
The relative viability was 0.423.

And the relative viability ([16]; first compound 0.04 µM)?
Its relative viability is 0.436.

What about the relative viability ([16]; first compound 0.1265 µM) of the same compound?
The relative viability was 0.496.

What about the relative viability ([16]; first compound 0.4 µM) of the same compound?
The relative viability was 0.5.

What about the relative viability ([16]; first compound 1.265 µM) of the same compound?
Its relative viability is 0.4.

And the relative viability ([16]; first compound 4 µM)?
The relative viability was 0.368.

And the relative viability ([17]; first compound 0.04 µM)?
Its relative viability is 1.02.

And the relative viability ([17]; first compound 0.1265 µM)?
Its relative viability is 1.09.

And the relative viability ([17]; first compound 0.4 µM)?
Its relative viability is 0.976.

What about the relative viability ([17]; first compound 1.265 µM) of the same compound?
The relative viability was 0.968.

And the relative viability ([17]; first compound 4 µM)?
The relative viability was 1.01.

And the relative viability ([18]; first compound 0.04 µM)?
Its relative viability is 0.866.

What about the relative viability ([18]; first compound 0.1265 µM) of the same compound?
Its relative viability is 0.828.

And the relative viability ([18]; first compound 0.4 µM)?
Its relative viability is 0.808.

What about the relative viability ([18]; first compound 1.265 µM) of the same compound?
Its relative viability is 0.713.

And the relative viability ([18]; first compound 4 µM)?
The relative viability was 0.942.

And the relative viability ([19]; first compound 0.04 µM)?
The relative viability was 0.652.

What about the relative viability ([19]; first compound 0.1265 µM) of the same compound?
Its relative viability is 0.581.

And the relative viability ([19]; first compound 0.4 µM)?
The relative viability was 0.621.

And the relative viability ([19]; first compound 1.265 µM)?
Its relative viability is 0.445.

What about the relative viability ([19]; first compound 4 µM) of the same compound?
The relative viability was 0.171.

And the relative viability ([20]; first compound 0.04 µM)?
The relative viability was 0.972.

What about the relative viability ([20]; first compound 0.1265 µM) of the same compound?
Its relative viability is 0.909.

And the relative viability ([20]; first compound 0.4 µM)?
Its relative viability is 0.964.

And the relative viability ([20]; first compound 1.265 µM)?
The relative viability was 0.704.

And the relative viability ([20]; first compound 4 µM)?
Its relative viability is 0.0745.

What about the relative viability ([21]; first compound 0.04 µM) of the same compound?
The relative viability was 0.651.

What about the relative viability ([21]; first compound 0.1265 µM) of the same compound?
Its relative viability is 0.588.

What about the relative viability ([21]; first compound 0.4 µM) of the same compound?
The relative viability was 0.645.

What about the relative viability ([21]; first compound 1.265 µM) of the same compound?
Its relative viability is 0.584.

What about the relative viability ([21]; first compound 4 µM) of the same compound?
The relative viability was 0.389.

What about the relative viability ([22]; first compound 0.04 µM) of the same compound?
Its relative viability is 0.863.

And the relative viability ([22]; first compound 0.1265 µM)?
The relative viability was 0.972.

And the relative viability ([22]; first compound 0.4 µM)?
The relative viability was 0.914.

What about the relative viability ([22]; first compound 1.265 µM) of the same compound?
The relative viability was 0.783.

What about the relative viability ([22]; first compound 4 µM) of the same compound?
Its relative viability is 0.238.
